Experimental findings from ChEMBL document CHEMBL3132769, “Fragment growing to retain or alter the selectivity of anchored kinase hinge-binding fragments” (Medchemcomm, 2014) are described below.

Experiment [1] has as its target Insulin-like growth factor 1 receptor (Homo sapiens) (UniProt P08069). Description: Inhibition of human IGF1R catalytic domain expressed in baculovirus assessed as substrate phosphorylation using fluorescence-labelled peptides as substrate at 8 uM after 90 mins by microfluidic peptide phosphorylation assay.
The target of experiment [2] is Fibroblast growth factor receptor 4 (Homo sapiens) (UniProt P22455). Briefly: Inhibition of human FGFR4 catalytic domain expressed in baculovirus assessed as substrate phosphorylation using fluorescence-labelled peptides as substrate at 8 uM after 90 mins by microfluidic peptide phosphorylation assay.
Experiment [3] addresses Calcium/calmodulin-dependent protein kinase type II subunit beta (Homo sapiens) (UniProt Q13554). Description: Inhibition of human CAMK2 beta catalytic domain expressed in baculovirus assessed as substrate phosphorylation using fluorescence-labelled peptides as substrate at 8 uM after 90 mins by microfluidic peptide phosphorylation assay.
The species entered for a further experiment is Homo sapiens. Description: Inhibition of human full length PKA expressed in baculovirus assessed as substrate phosphorylation using fluorescence-labelled peptides as substrate at 420 uM after 90 mins by microfluidic peptide phosphorylation assay.
Experiment [4] concerns the target Ribosomal protein S6 kinase alpha-5 (Homo sapiens) (UniProt O75582). Description: Inhibition of human full length MSK1 expressed in baculovirus assessed as substrate phosphorylation using fluorescence-labelled peptides as substrate at 0.1 uM after 90 mins by microfluidic peptide phosphorylation assay.
For experiment [5], the target named is Calcium/calmodulin-dependent protein kinase type II subunit gamma (Homo sapiens) (UniProt Q13555). Description: Inhibition of human CAMK2 gamma catalytic domain expressed in baculovirus assessed as substrate phosphorylation using fluorescence-labelled peptides as substrate at 0.06 uM after 90 mins by microfluidic peptide phosphorylation assay.
Experiment [6] addresses Serine/threonine-protein kinase MARK2 (Homo sapiens) (UniProt Q7KZI7). Briefly: Inhibition of human full length MARK2 expressed in baculovirus assessed as substrate phosphorylation using fluorescence-labelled peptides as substrate at 0.2 uM after 90 mins by microfluidic peptide phosphorylation assay.
Experiment [7] deals with Hepatocyte growth factor receptor (Homo sapiens) (UniProt P08581). Description: Inhibition of human MET cytoplasmic domain expressed in baculovirus assessed as substrate phosphorylation using fluorescence-labelled peptides as substrate at 0.2 uM after 90 mins by microfluidic peptide phosphorylation assay.
In experiment [8] the target is Fibroblast growth factor receptor 2 (Homo sapiens) (UniProt P21802). Description: Inhibition of human FGFR2 catalytic domain expressed in baculovirus assessed as substrate phosphorylation using fluorescence-labelled peptides as substrate at 9 uM after 90 mins by microfluidic peptide phosphorylation assay.
Experiment [9] concerns the target Tyrosine-protein kinase ABL2 (Homo sapiens) (UniProt P42684). Description: Inhibition of human truncated Arg expressed in baculovirus assessed as substrate phosphorylation using fluorescence-labelled peptides as substrate at 2 uM after 90 mins by microfluidic peptide phosphorylation assay.
The target of experiment [10] is Epidermal growth factor receptor (Homo sapiens) (UniProt P00533). Briefly: Inhibition of human EGFR catalytic domain expressed in baculovirus assessed as substrate phosphorylation using fluorescence-labelled peptides as substrate at 2 uM after 90 mins by microfluidic peptide phosphorylation assay.
Experiment [11] deals with Fibroblast growth factor receptor 3 (Homo sapiens) (UniProt P22607). Briefly: Inhibition of human FGFR3 catalytic domain expressed in baculovirus assessed as substrate phosphorylation using fluorescence-labelled peptides as substrate at 2 uM after 90 mins by microfluidic peptide phosphorylation assay.
Experiment [12] deals with Dual specificity tyrosine-phosphorylation-regulated kinase 1A (Rattus norvegicus) (UniProt Q63470). Briefly: Inhibition of rat full length DYRK1a expressed in Escherichia coli cell assessed as substrate phosphorylation using fluorescence-labelled peptides as substrate at 95 uM after 90 mins by microfluidic peptide phosphorylation assay.
In experiment [13] the target is Serine/threonine-protein kinase pim-1 (Homo sapiens) (UniProt P11309). Briefly: Inhibition of human full length PIM1 expressed in baculovirus assessed as substrate phosphorylation using fluorescence-labelled peptides as substrate at 95 uM after 90 mins by microfluidic peptide phosphorylation assay.
Experiment [14] addresses Proto-oncogene tyrosine-protein kinase Src (Homo sapiens) (UniProt P12931). Description: Inhibition of human full length SRC expressed in baculovirus assessed as substrate phosphorylation using fluorescence-labelled peptides as substrate at 1000 uM after 90 mins by microfluidic peptide phosphorylation assay.
Experiment [15] addresses RAF proto-oncogene serine/threonine-protein kinase (Homo sapiens) (UniProt P04049). Briefly: Inhibition of human truncated c-Raf expressed in baculovirus assessed as substrate phosphorylation using fluorescence-labelled peptides as substrate at 1000 uM after 90 mins by microfluidic peptide phosphorylation assay.
Experiment [16] has as its target Hepatocyte growth factor receptor (Homo sapiens) (UniProt P08581). Briefly: Inhibition of human MET cytoplasmic domain expressed in baculovirus assessed as substrate phosphorylation using fluorescence-labelled peptides as substrate at […] after 90 mins by microfluidic peptide phosphorylation assay.
Experiment [17] concerns the target T1, Serine/threonine-protein kinase D1 (Homo sapiens) (UniProt Q15139).
T1 sequence (whole entry): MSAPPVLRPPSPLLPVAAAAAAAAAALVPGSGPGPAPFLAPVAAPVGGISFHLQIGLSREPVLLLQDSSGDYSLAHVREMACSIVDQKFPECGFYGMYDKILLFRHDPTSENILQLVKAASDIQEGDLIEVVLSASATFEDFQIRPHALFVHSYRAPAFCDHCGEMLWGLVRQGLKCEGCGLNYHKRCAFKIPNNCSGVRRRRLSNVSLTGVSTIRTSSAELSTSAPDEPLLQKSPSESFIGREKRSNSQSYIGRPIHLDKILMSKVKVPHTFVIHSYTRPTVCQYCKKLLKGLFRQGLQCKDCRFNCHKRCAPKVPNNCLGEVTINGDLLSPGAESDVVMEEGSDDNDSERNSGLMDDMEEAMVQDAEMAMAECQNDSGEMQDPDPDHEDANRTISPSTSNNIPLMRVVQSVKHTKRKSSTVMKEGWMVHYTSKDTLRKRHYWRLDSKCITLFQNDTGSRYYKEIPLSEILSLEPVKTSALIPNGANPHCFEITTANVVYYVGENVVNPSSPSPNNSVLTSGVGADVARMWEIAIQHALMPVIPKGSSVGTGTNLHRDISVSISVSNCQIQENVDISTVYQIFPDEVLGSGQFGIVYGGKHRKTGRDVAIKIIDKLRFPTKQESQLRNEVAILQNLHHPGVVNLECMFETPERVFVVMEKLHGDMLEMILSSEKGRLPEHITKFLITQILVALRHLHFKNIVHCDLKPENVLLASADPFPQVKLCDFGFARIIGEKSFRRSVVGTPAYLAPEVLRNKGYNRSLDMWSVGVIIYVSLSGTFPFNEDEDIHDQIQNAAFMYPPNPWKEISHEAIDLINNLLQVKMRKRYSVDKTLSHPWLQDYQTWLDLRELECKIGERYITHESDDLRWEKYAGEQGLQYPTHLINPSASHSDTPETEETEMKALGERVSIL
Briefly: Inhibition of human full length PKD1 expressed in baculovirus assessed as substrate phosphorylation using fluorescence-labelled peptides as substrate at […] after 90 mins by microfluidic peptide phosphorylation assay.

One may read the inhibition as how much of the control response was suppressed.

Sequence of Hepatocyte growth factor receptor (Homo sapiens) (P08581 whole entry, the tested form may be a part): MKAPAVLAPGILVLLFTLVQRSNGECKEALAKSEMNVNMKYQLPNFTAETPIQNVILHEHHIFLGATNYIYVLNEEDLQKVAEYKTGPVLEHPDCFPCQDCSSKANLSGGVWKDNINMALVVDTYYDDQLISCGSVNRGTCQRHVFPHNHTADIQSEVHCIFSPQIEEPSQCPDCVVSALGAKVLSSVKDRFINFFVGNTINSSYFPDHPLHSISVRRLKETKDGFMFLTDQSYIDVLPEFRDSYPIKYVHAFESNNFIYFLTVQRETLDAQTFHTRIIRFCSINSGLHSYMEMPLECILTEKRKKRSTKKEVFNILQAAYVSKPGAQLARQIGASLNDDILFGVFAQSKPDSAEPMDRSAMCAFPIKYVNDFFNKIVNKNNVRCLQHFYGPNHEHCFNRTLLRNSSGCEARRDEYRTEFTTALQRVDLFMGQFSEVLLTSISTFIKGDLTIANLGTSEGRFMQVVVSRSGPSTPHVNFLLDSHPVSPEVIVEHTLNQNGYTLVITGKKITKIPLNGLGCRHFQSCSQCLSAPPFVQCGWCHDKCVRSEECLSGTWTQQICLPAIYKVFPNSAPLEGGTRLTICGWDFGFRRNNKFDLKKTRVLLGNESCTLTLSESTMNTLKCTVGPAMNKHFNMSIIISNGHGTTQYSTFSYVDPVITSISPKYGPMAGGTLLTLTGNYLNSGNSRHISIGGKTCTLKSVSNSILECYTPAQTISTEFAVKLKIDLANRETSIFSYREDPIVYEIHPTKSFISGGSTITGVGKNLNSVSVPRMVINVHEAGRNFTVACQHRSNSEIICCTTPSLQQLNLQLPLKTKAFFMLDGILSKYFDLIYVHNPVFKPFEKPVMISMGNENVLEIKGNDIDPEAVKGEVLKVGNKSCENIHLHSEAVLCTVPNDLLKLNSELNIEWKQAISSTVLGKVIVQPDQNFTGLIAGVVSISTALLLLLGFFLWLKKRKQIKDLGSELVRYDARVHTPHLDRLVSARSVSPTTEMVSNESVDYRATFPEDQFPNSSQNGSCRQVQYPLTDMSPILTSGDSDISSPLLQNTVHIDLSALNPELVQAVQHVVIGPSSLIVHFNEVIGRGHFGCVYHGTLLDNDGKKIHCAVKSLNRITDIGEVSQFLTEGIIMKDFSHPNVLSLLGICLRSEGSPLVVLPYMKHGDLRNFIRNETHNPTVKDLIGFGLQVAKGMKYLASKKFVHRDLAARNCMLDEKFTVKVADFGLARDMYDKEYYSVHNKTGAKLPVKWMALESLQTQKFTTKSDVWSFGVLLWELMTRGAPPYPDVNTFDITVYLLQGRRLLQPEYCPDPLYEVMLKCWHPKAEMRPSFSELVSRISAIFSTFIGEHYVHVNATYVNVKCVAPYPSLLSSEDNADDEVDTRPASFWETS
Sequence of RAF proto-oncogene serine/threonine-protein kinase (Homo sapiens) (P04049 whole entry, the tested form may be a part): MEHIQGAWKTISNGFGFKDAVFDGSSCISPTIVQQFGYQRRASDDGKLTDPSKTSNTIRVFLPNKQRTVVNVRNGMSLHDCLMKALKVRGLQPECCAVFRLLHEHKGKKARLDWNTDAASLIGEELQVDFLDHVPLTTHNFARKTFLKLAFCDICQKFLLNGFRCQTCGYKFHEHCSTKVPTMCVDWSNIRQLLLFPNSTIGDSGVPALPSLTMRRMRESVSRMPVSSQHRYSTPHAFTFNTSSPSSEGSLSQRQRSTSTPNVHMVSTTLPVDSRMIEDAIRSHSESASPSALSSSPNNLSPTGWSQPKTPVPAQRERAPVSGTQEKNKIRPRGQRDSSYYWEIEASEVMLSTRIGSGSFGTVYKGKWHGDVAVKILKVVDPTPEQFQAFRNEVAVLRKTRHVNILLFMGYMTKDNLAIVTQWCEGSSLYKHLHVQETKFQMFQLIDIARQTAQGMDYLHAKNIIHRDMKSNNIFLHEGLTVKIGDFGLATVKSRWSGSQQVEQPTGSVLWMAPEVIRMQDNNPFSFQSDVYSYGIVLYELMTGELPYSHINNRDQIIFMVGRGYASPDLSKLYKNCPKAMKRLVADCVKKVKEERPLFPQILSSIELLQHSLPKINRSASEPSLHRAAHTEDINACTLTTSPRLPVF
Sequence of Proto-oncogene tyrosine-protein kinase Src (Homo sapiens) (P12931 2-536 limits assumed): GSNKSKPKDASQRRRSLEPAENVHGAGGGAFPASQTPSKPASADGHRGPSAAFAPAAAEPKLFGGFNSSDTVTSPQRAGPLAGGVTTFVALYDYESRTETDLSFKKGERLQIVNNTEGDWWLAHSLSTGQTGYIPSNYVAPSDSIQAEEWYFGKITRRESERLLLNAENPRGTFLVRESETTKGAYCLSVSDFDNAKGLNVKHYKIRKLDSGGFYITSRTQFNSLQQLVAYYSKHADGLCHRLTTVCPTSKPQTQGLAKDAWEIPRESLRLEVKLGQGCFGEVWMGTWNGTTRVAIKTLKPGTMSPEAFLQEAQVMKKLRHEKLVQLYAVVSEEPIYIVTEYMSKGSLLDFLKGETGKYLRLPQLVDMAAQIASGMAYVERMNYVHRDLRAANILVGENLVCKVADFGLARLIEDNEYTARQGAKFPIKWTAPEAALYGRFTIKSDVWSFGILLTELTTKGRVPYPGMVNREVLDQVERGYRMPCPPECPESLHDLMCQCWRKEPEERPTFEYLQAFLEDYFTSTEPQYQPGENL
Sequence of Fibroblast growth factor receptor 2 (Homo sapiens) (P21802 22-821 limits assumed): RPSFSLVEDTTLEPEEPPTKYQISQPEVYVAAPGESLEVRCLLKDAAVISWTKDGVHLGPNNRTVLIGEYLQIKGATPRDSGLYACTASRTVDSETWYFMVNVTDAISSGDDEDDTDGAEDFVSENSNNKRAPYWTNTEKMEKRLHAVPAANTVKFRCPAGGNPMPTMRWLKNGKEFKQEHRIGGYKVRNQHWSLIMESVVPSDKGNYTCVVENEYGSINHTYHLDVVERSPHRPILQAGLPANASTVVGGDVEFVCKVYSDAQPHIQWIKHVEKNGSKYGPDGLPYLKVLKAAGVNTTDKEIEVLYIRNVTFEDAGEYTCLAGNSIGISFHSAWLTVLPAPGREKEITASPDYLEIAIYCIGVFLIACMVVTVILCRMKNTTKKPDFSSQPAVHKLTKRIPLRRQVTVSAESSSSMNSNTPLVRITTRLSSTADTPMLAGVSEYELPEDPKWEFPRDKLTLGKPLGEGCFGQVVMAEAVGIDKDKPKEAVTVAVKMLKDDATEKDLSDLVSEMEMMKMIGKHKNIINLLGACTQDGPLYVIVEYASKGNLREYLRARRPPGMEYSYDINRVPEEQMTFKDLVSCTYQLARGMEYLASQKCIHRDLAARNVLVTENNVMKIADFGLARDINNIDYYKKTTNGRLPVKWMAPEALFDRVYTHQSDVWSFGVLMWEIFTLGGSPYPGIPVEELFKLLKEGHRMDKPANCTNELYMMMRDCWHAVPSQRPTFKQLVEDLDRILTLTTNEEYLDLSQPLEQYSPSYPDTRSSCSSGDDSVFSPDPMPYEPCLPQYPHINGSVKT
Sequence of Fibroblast growth factor receptor 3 (Homo sapiens) (P22607 23-806 limits assumed): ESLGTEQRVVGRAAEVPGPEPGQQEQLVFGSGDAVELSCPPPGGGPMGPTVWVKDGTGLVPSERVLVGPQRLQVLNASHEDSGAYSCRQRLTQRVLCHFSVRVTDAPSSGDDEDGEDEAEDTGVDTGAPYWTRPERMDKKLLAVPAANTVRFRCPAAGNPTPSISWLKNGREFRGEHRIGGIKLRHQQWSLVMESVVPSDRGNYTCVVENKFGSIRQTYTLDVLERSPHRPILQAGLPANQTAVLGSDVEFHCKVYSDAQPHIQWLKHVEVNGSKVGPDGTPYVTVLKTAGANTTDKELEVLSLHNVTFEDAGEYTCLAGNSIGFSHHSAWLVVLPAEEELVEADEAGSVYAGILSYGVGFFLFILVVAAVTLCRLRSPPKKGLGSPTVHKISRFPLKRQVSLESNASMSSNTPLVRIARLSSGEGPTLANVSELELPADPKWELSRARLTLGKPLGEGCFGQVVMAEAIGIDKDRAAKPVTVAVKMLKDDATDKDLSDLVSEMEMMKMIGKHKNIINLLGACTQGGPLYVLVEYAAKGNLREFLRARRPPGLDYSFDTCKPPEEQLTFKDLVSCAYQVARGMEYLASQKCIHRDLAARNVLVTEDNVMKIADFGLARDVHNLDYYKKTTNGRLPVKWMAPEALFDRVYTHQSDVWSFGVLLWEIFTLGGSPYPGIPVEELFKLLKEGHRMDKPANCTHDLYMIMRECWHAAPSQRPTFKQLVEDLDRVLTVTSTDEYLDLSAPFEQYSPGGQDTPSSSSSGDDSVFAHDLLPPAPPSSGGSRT
Sequence of Serine/threonine-protein kinase pim-1 (Homo sapiens) (P11309 whole entry, looked up): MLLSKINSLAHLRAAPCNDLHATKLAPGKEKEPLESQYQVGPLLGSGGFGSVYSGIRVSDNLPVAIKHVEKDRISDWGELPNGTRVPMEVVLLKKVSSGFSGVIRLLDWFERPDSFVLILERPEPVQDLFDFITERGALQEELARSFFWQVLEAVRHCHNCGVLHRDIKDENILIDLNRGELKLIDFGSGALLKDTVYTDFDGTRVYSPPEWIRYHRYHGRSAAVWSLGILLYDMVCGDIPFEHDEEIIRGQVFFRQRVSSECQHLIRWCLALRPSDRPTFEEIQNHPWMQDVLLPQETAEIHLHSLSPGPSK
Sequence of Calcium/calmodulin-dependent protein kinase type II subunit gamma (Homo sapiens) (Q13555 whole entry, the tested form may be a part): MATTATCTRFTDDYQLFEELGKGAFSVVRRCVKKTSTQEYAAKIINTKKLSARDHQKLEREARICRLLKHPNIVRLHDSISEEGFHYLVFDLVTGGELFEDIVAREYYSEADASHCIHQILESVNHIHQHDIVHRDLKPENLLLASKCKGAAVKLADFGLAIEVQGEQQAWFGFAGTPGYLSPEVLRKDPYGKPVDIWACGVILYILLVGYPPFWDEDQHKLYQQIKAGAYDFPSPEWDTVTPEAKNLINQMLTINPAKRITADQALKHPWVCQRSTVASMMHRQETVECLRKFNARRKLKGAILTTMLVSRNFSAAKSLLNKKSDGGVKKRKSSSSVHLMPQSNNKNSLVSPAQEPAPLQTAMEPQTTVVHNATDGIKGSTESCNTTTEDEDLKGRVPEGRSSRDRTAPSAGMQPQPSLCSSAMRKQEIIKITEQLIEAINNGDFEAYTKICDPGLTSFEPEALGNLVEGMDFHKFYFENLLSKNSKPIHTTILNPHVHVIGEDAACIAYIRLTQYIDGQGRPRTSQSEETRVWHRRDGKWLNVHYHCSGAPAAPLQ

In the case of `NCC1CCN(c2ncnc3[nH]ccc23)CC1`, the figures for the inhibition in [1], in [2] and in [3] were 30%, 27.5% and 81%, respectively.

`c1nc(N2CCOCC2)c2nc[nH]c2n1`: in the experiment filed under Homo sapiens, the inhibition stood at 92.5%.

With `C[C@H](CN(C)C)Oc1nc(Nc2cc3cccc(Cl)c3cn2)cnc1C#N`, the inhibition in experiment [4] stood at 0.5%.

As for `NC1(Cc2ccc(Cl)cc2)CCN(c2ncnc3[nH]ccc23)CC1`, the inhibition in [5] turned out to be 0%.

Consider `Clc1ccc(C2(c3ccc(-c4ncnc5[nH]cnc45)cc3)CCNCC2)cc1`, for which the figures for the inhibition in experiment [6] and in [7] were 41.5% and 9.5%, respectively.

For the compound `NCC1CN(c2ncnc3[nH]c4cnccc4c23)CCO1` (stereo not drawn), the inhibition in experiment [8] came to 30%.

As for `NC1CCN(c2ncnc3[nH]ccc23)CC1`, the inhibition in experiment [9] stood at 7.5%; in experiment [10], 3.5%; in experiment [11], 0%.

With `NCCc1ccc(-c2ncnc3[nH]cnc23)cc1`, the inhibition in [12] is 79%; in experiment [13], 42.5%.

With `c1cnc2[nH]ccc2c1`, the inhibition was determined as 28.5% in experiment [14] and 20% in experiment [15].

Consider `COC(=O)c1cnc(Nc2cnc(C#N)cn2)cc1NCC1CCNCC1`, for which the inhibition was 2.5% in experiment [16] and 3% in experiment [17].
